According to patent publication US10155754B2, “Substituted 2-imino-1,3-thiazolidin-4-ones as N-arachidonoylethanolamine cellular uptake inhibitors” (UNIVERSITAT BERN, priority 2014, dated 2018):

The compounds below were run on AEA cellular uptake (U937 cells) (assay: [3H]-AEA cellular uptake inhibition in U937 cells). Conditions: Homo sapiens, U-937, U937 cells, final 100 nM AEA with 0.5 nM [3H]-AEA, 15 min at 37° C.; read-out: AEA uptake IC50.
Type: cell-based
Method: [^3H]-AEA Cellular Uptake
Screening for AEA cellular uptake inhibition was performed in a semi-automated procedure: Pipetting and washing steps were performed by a Biomek3000 laboratory workstation. First, required amounts of U937 cells were centrifuged at 100×g for 5 min and resuspended in RPMI (37° C.) to a final concentration of 2×10^6 cells/mL. Then, 250 μL of cell suspension (0.5×10^6 cells per sample) were transferred into AquaSil™ silanized glass vials (Chromacol 1.1-MTV) in 96-well format. After addition of 5 μL vehicle (DMSO) or compounds the cells were incubated at 37° C. for 15 min. As positive controls OMDM-2 and UCM707 were used at 10 μM in each run. The ETI-T compounds were measured at up to 7 concentrations in triplicates from 100 pM-100 μM. After pre-incubation, a mixture of 0.5 nM [ethanolamine-1-^3H]-AEA, (60 Ci/mmol) and 99.5 nM of cold AEA (final 100 nM) was added and samples were incubated at 37° C. for another 15 min. The reaction was stopped by rapid filtration over UniFilter-96 GF/C filters (PerkinElmer) pre-soaked with PBS 0.25% BSA. Cells were washed three times with 100 μL ice-cold PBS buffer containing 1% fatty acid free BSA. After drying, 45 μL MicroScint 20 scintillation cocktail (PerkinElmer, Waltham, Mass., US) was added to the wells and the plate was sealed. Radioactivity was measured by liquid scintillation counting on a PerkinElmer Wallac Trilux MicroBeta 1450 during 2 min. Non-specific binding of [^3H]AEA (100 nM) to the glass vials was never higher than 10%. IC50 values were calculated by GraphPad® by non-linear regression using the built-in log(inhibitor) vs. response-variable slope (four parameters) function.

| Compound | IC50 [nM] |
| --- | --- |
| COc1ccc(/N=C2\S/C(=C\c3ccc4[nH]ccc4c3)C(=O)N2c2ccccc2)cc1 [03_F_N, (2Z,5Z)-5-((1H-indol-5-yl)methylene)-2-(4-methoxyphenylimino)-3-phenylthiazolidin-4-one] | 1070 |
| CCCCN1C(=O)/C(=C/c2ccc3[nH]cnc3c2)S/C1=N\c1ccccc1 [04_N_G, (2Z,5Z)-5-((1H-benzo[d]imidazol-5-yl)methylene)-3-butyl-2-(phenylimino)thiazolidin-4-one] | 557 |
| CCCCN1C(=O)/C(=C/c2ccc(CO)cc2)S/C1=N\Cc1ccccc1 [22_C_G, (2Z,5Z)-5-(4-(hydroxymethyl)benzylidene)-2-(benzylimino)-3-butylthiazolidin-4-one] | 1280 |
| O=C1/C(=C/c2ccc3[nH]cnc3c2)S/C(=N\c2ccccc2)N1Cc1ccccc1 [03_N_C, (2Z,5Z)-5-((1H-benzo[d]imidazol-5-yl)methylene)-3-benzyl-2-(phenylimino)thiazolidin-4-one] | 610 |
| C/N=C1\S/C(=C\c2ccc(CO)cc2)C(=O)N1c1ccccc1 [22_E_N, (2Z,5Z)-5-(4-(hydroxymethyl)benzylidene)-2-(methylimino)-3-phenylthiazolidin-4-one] | > 10000 |
| O=C1/C(=C/c2ccc(CO)cc2)S/C(=N\Cc2ccccc2)N1c1ccc(F)cc1 [22_C_B, (2Z,5Z)-5-(4-(hydroxymethyl)benzylidene)-2-(benzylimino)-3-(4-fluorophenyl)thiazolidin-4-one] | 2170 |
| COc1ccc(N2C(=O)/C(=C/c3ccc(CO)cc3)S/C2=N\c2ccccc2)cc1 [22_N_F, (2Z,5Z)-5-(4-(hydroxymethyl)benzylidene)-3-(4-methoxyphenyl)-2-(phenylimino)thiazolidin-4-one] | > 10000 |
| COc1ccc(N2C(=O)/C(=C/c3ccc(CO)cc3)S/C2=N\Cc2ccccc2)cc1 [22_C_F, (2Z,5Z)-5-(4-(hydroxymethyl)benzylidene)-2-(benzylimino)-3-(4-methoxyphenyl)thiazolidin-4-one] | 592 |
| Cc1ccc(/N=C2\S/C(=C\c3ccc(CO)cc3)C(=O)N2c2ccccc2)nc1 [22_D_N, (2Z,5Z)-5-(4-(hydroxymethyl)benzylidene)-2-(5-methylpyridin-2-ylimino)-3-phenylthiazolidin-4-one] | 1450 |
| O=C1/C(=C/c2ccc3[nH]cnc3c2)S/C(=N\Cc2ccccc2)N1CCc1ccccc1 [04_C_O, (2Z,5Z)-5-((1H-benzo[d]imidazol-5-yl)methylene)-2-(benzylimino)-3-phenethylthiazolidin-4-one] | 1120 |
| CC(C)CN1C(=O)/C(=C/c2ccc3[nH]cnc3c2)S/C1=N\c1ccc(F)cc1 [04_B_X, (2Z,5Z)-5-((1H-benzo[d]imidazol-5-yl)methylene)-2-(4-fluorophenylimino)-3-isobutylthiazolidin-4-one] | 578 |

Further lines, results first:

| IC50 [nM] | Compound |
| --- | --- |
| 5180 | CC(C)(C)c1ccc(C/N=C2\S/C(=C\c3ccc(CO)cc3)C(=O)N2c2ccccc2)cc1 [22_R_N, (2Z,5Z)-5-(4-(hydroxymethyl)benzylidene)-2-(4-tert-butylbenzylimino)-3-phenylthiazolidin-4-one] |
| 1510 | Cc1ccc(/N=C2\S/C(=C\c3ccc4c(c3)OCCO4)C(=O)N2c2ccccc2)cc1 [24_A_N, (2Z,5Z)-2-(p-tolylimino)-5-((2,3-dihydrobenzo[b][1,4]dioxin-6-yl)methylene)-3-phenylthiazolidin-4-one] |
| 1620 | O=C1/C(=C/c2ccc3c(c2)OCCO3)S/C(=N\CCCc2ccccc2)N1c1ccccc1 [24_K_N, (2Z,5Z)-2-(3-phenylpropylimino)-5-((2,3-dihydrobenzo[b][1,4]dioxin-7-yl)methylene)-3-phenylthiazolidin-4-one] |
| 1310 | O=C1/C(=C/c2ccc(CO)cc2)S/C(=N\c2ccccc2)N1Cc1ccco1 [22_N_M, (2Z,5Z)-5-(4-(hydroxymethyl)benzylidene)-3-((furan-2-yl)methyl)-2-(phenylimino)thiazolidin-4-one] |
| 721 | Cc1ccc(/N=C2\S/C(=C\c3ccc4c(c3)OCCO4)C(=O)N2CC(C)C)cc1 [24_A_X, (2Z,5Z)-2-(p-tolylimino)-5-((2,3-dihydrobenzo[b][1,4]dioxin-6-yl)methylene)-3-isobutylthiazolidin-4-one] |
| 138 | Cc1ccc(/N=C2\S/C(=C\c3ccc4c(c3)OCCO4)C(=O)N2c2ccc(F)cc2)cc1 [24_A_B, (2Z,5Z)-5-(2,3-dihydro-1,4-benzodioxin-6-ylmethylene)-3-(4-fluorophenyl)-2-(p-tolylimino)thiazolidin-4-one] |
| 632 | Cc1ccc(N2C(=O)/C(=C/c3ccc4[nH]cnc4c3)S/C2=N\c2ccc(F)cc2)cc1 [32_B_A, (2Z,5Z)-5-((1H-benzo[d]imidazol-5-yl)methylene)-2-(4-fluorophenylimino)-3-p-tolylthiazolidin-4-one] |
| 1090 | CCCCN1C(=O)/C(=C/c2ccc(CO)cc2)S/C1=N\c1ccccc1 [22_N_G, (2Z,5Z)-5-(4-(hydroxymethyl)benzylidene)-3-butyl-2-(phenylimino)thiazolidin-4-one] |

Same assay, conditions: Homo sapiens, U-937, U937 cells, final 100 nM AEA with 0.5 nM [3H]-AEA, 15 min at 37° C.; read-out: AEA uptake inhibition IC50

| Compound | IC50 [nM] |
| --- | --- |
| COc1cc(/C=C2\S/C(=N\c3ccccc3)N(c3ccccc3)C2=O)ccn1 | 5500 |
| COc1ccc(/C=C2\S/C(=N\c3ccc(C)cc3)N(c3ccccc3)C2=O)cc1 | 5100 |
| O=C1/C(=C/c2ccc3[nH]cnc3c2)S/C(=N\c2ccccc2)N1Cc1ccco1 | 1840 |
| COc1ccc(/C=C2\S/C(=N\c3ccccc3)N(c3ccccc3)C2=O)nc1 | 6600 |
| CCCCN1C(=O)/C(=C/c2ccccc2)S/C1=N\c1ccccc1 | 4150 |
| COc1ccc(/C=C2\S/C(=N\c3ccc(OC)cc3)N(c3ccccc3)C2=O)cc1 | 1740 |
| O=C1/C(=C/c2ccc3occc3c2)S/C(=N\c2ccccc2)N1c1ccccc1 | 3260 |
| CCCCN1C(=O)/C(=C/c2ccc(OC)cc2)S/C1=N\c1ccccc1 | 2270 |
| C/N=C1\S/C(=C\c2ccc3[nH]ccc3c2)C(=O)N1c1ccccc1 | 16600 |
| CSc1ccc(/C=C2\S/C(=N\c3ccccc3)N(c3ccccc3)C2=O)cc1 | 9940 |
| COc1ccc(/N=C2\S/C(=C\c3ccccc3)C(=O)N2c2ccccc2)cc1 | 2340 |

The next lines start with the values.

| IC50 [nM] | Compound |
| --- | --- |
| 879 | O=C1/C(=C/c2ccc3[nH]ccc3c2)S/C(=N\c2ccccc2)N1Cc1ccco1 [drawing 153] |
| 731 | O=C1/C(=C/c2ccc3[nH]ccc3c2)S/C(=N\c2ccccc2)N1c1ccccc1 [drawing 108] |
| 729 | O=C1/C(=C/c2ccc(CO)cc2)S/C(=N\c2ccccc2)N1c1ccccc1 [drawing 121] |
| 164 | COc1ccc(/N=C2\S/C(=C\c3ccc4[nH]cnc4c3)C(=O)N2c2ccccc2)cc1 [drawing 147] |
| 194 | O=C1/C(=C/c2ccc3[nH]cnc3c2)S/C(=N\c2ccccc2)N1c1ccccc1 [drawing 109] |

Same assay, conditions: U937 cells, final 100 nM AEA with 0.5 nM [3H]-AEA, 15 min at 37° C.; read-out: AEA uptake IC50

| IC50 [nM] | Compound |
| --- | --- |
| 1200 | O=C1/C(=C/c2ccc(CO)cc2)S/C(=N\Cc2ccccc2)N1CCc1ccccc1 [22_C_O, (2Z,5Z)-5-(4-(hydroxymethyl)benzylidene)-2-(benzylimino)-3-phenethylthiazolidin-4-] |
| 861 | O=C1/C(=C/c2ccc(CO)cc2)S/C(=N\c2ccccc2)N1CCCc1ccccc1 [22_N_K, (2Z,5Z)-5-(4-(hydroxymethyl)benzylidene)-2-(phenylimino)-3-(3-phenylpropyl)thiazolidin-4-] |
